According to patent publication US20230049952A1, “METHODS AND COMPOUNDS FOR RESTORING MUTANT P53 FUNCTION” (PMV Pharmaceuticals, Inc., priority 2020, published 2023):

Columns and labels:
P-GP = P-GP (Homo sapiens, UniProt P08183); assay: in vitro; details: pH 7.4
CYP2B6 [1] = molecular target: T1, CYP2B6 (Homo sapiens, UniProt P20813); assay: CYP inhibition in human liver microsomes; type: in vitro ADME; parameters: from tissue; host or cells: pooled human liver microsomes, 200 donors; details: both sexes, pooled human liver microsomes, pH 7.4, HLM, read-out: % of Control Enzyme Activity
T1 sequence (P20813 1-491): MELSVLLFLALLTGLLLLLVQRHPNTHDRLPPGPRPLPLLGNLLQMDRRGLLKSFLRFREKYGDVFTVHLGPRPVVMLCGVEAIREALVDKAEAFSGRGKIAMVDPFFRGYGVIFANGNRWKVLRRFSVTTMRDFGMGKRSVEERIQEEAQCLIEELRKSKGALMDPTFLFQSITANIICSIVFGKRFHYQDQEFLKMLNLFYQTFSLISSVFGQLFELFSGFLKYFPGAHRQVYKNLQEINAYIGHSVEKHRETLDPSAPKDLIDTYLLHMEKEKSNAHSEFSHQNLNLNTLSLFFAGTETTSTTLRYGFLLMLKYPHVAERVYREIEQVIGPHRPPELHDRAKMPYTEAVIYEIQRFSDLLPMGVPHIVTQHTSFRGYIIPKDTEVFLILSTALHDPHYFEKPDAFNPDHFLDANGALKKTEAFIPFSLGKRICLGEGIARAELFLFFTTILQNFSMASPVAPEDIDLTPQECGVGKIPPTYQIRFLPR
Description: The HLMs were stored at −80° C. until use.
Negative (vehicle) controls were conducted without a test article.

CYP2B6 [2] = molecular target: T1, CYP2B6; assay: time-dependent CYP inhibition in human liver microsomes (IC50 shift); details: both, pooled human liver microsomes, pH 7.4, % of Control Enzyme Activity; for activity at 20 min, 0.37 µM: 0.370 μM
human hepatocytes = assay: metabolic stability in cryopreserved hepatocytes; type: in vitro ADME
Description: (§1) Mixed-gender human cryopreserved hepatocytes, male Sprague-Dawley rat cryopreserved hepatocytes, male CD-1 mouse cryopreserved hepatocytes, male beagle dog cryopreserved hepatocytes, and male cynomolgus monkey cryopreserved hepatocytes were used for the study. The hepatocytes were thawed, pooled into Krebs Henseleit buffer (KHB, pH 7.4), and kept on ice prior to the experiments. […] Each experiment was performed in triplicate. The final DMSO content in the incubation mixture was ≤0.1%. […] Positive controls, testosterone (1 μM) and 7-hydroxycoumarin (7-HC) (100 μM), were performed in parallel to confirm the activity of the hepatocytes. […] Aliquots of testosterone were withdrawn (n=1) at 0, 5, 15, 30, 60, and 120 minutes. Aliquots of 7-HC were withdrawn (n=1) at 0 and 15 minutes. The reaction was immediately terminated by adding three volumes of ice-cold MeCN containing IS. The samples were then mixed and spun by centrifuge to precipitate proteins. An aliquot of the supernatant was then diluted with water. Calibration standards for the analysis of 7-HC metabolites were prepared in matched matrix. […] All samples were analyzed by LC-MS/MS. The peak area response ratio (PARR) vs. IS was compared to the PARR at time 0 to determine the percent remaining at each time point. Half-lives and clearance values were calculated using GraphPad software, fitting to a single-phase exponential decay equation.
(§2) Mixed-gender human cryopreserved hepatocytes, male Sprague-Dawley rat cryopreserved hepatocytes, male CD-1 mouse cryopreserved hepatocytes, male beagle dog cryopreserved hepatocytes, and male cynomolgus monkey cryopreserved hepatocytes were thawed and pooled into KHB buffer (pH 7.4) and kept on ice prior to the experiments. […] Each experiment was performed in triplicate. The final DMSO content in the incubation mixture was ≤0.1%.
(§3) Positive controls, testosterone (1 μM) and 7-hydroxycoumarin (7-HC) (100 μM), were performed in parallel to confirm the activity of the hepatocytes. […] Aliquots of testosterone were withdrawn (n=1) at 0, 5, 15, 30, 60, and 120 minutes. Aliquots of 7-HC were withdrawn (n=1) at 0 and 15 minutes. The reaction was immediately terminated by adding three volumes of ice-cold MeCN containing IS. The samples were then mixed and spun by centrifuge to precipitate proteins. An aliquot of the supernatant was then diluted with water. Calibration standards for the analysis of 7-HC metabolites were prepared in matched matrix. […] All samples were analyzed by LC-MS/MS. Analytical conditions are outlined below. The peak area response ratio (PARR) vs. IS was compared to the PARR at time 0 to determine the percent remaining at each time point. Half-lives and clearance values were calculated using GraphPad software, fitting to a single-phase exponential decay equation.

[3] = metabolic stability in cryopreserved hepatocytes; type: in vitro ADME, rat
Description: as §1, §2, §3

[4] = metabolic stability in cryopreserved hepatocytes; type: in vitro ADME, mouse
Description: as §1, §2, §3

[5] = metabolic stability in cryopreserved hepatocytes; type: in vitro ADME, dog
Description: Mixed-gender human cryopreserved hepatocytes, male Sprague-Dawley rat cryopreserved hepatocytes, male CD-1 mouse cryopreserved hepatocytes, male beagle dog cryopreserved hepatocytes, and male cynomolgus monkey cryopreserved hepatocytes were used for the study. The hepatocytes were thawed, pooled into Krebs Henseleit buffer (KHB, pH 7.4), and kept on ice prior to the experiments. […] Each experiment was performed in triplicate. The final DMSO content in the incubation mixture was ≤0.1%. […] Aliquots of testosterone were withdrawn (n=1) at 0, 5, 15, 30, 60, and 120 minutes. Aliquots of 7-HC were withdrawn (n=1) at 0 and 15 minutes. The reaction was immediately terminated by adding three volumes of ice-cold MeCN containing IS. The samples were then mixed and spun by centrifuge to precipitate proteins. An aliquot of the supernatant was then diluted with water. Calibration standards for the analysis of 7-HC metabolites were prepared in matched matrix. […] All samples were analyzed by LC-MS/MS. The peak area response ratio (PARR) vs. IS was compared to the PARR at time 0 to determine the percent remaining at each time point. Half-lives and clearance values were calculated using GraphPad software, fitting to a single-phase exponential decay equation.
as §2
Aliquots of testosterone were withdrawn (n=1) at 0, 5, 15, 30, 60, and 120 minutes. Aliquots of 7-HC were withdrawn (n=1) at 0 and 15 minutes. The reaction was immediately terminated by adding three volumes of ice-cold MeCN containing IS. The samples were then mixed and spun by centrifuge to precipitate proteins. An aliquot of the supernatant was then diluted with water. Calibration standards for the analysis of 7-HC metabolites were prepared in matched matrix. […] All samples were analyzed by LC-MS/MS. Analytical conditions are outlined below. The peak area response ratio (PARR) vs. IS was compared to the PARR at time 0 to determine the percent remaining at each time point. Half-lives and clearance values were calculated using GraphPad software, fitting to a single-phase exponential decay equation.

[6] = metabolic stability in cryopreserved hepatocytes; type: in vitro ADME, cynomolgus monkey
Description: as §1, §2, §3

in vitro = details: male, plasma
Description: Studies were carried out in mixed-gender human plasma, male Sprague-Dawley rat plasma, male CD-1 mouse plasma, male Beagle dog plasma, and male Cynomolgus monkey plasma collected on sodium heparin. A Rapid Equilibrium Dialysis (RED) device was used for all experiments. […] Blank PBS (500 μL) was added to each corresponding receiver chamber. The device was then placed into an enclosed heated rocker that was pre-warmed to 37° C., and allowed to incubate for four hours. After 4 hours of incubation, both sides were sampled.
Aliquots (50 μL for donor, 200 μL for receiver) were removed from the chambers and placed into a 96-well plate. Plasma (50 μL) was added to the wells containing the receiver samples, and 200 μL of PBS was added to the wells containing the donor samples. Two volumes of acetonitrile were added to each well, and the plate was mixed and then centrifuged at 3,000 rpm for 10 minutes. Aliquots of the supernatant were removed, and analyzed by LCMS/MS. Calibration standards were prepared in a matched matrix and prepared similarly to the assay samples. Binding and recovery values were calculated as follows: % Bound=[(Concentration in Donor−Concentration in Receiver)/(Concentration in Donor)]×100; % Recovery=[(Concentration in Donor+Concentration in Receiver)/(Nominal Dosing Concentration)]×100.

[7] = Human cryopreserved hepatocytes, positive control 7-hydroxycoumarin 100 μM
[8] = Human hepatocytes, from 7-hydroxycoumarin (7-HC) 100 μM positive control
[9] = Rat cryopreserved hepatocytes, positive control 7-hydroxycoumarin 100 μM
[10] = Rat hepatocytes, from 7-hydroxycoumarin (7-HC) 100 μM positive control
[11] = Mouse cryopreserved hepatocytes, positive control 7-hydroxycoumarin 100 μM
[12] = Mouse hepatocytes, from 7-hydroxycoumarin (7-HC) 100 μM positive control
[13] = Dog cryopreserved hepatocytes, positive control 7-hydroxycoumarin 100 μM
[14] = Dog hepatocytes, from 7-hydroxycoumarin (7-HC) 100 μM positive control
[15] = Monkey cryopreserved hepatocytes, positive control 7-hydroxycoumarin 100 μM
[16] = Monkey hepatocytes, from 7-hydroxycoumarin (7-HC) 100 μM positive control

Chain of P-GP (P08183 whole entry): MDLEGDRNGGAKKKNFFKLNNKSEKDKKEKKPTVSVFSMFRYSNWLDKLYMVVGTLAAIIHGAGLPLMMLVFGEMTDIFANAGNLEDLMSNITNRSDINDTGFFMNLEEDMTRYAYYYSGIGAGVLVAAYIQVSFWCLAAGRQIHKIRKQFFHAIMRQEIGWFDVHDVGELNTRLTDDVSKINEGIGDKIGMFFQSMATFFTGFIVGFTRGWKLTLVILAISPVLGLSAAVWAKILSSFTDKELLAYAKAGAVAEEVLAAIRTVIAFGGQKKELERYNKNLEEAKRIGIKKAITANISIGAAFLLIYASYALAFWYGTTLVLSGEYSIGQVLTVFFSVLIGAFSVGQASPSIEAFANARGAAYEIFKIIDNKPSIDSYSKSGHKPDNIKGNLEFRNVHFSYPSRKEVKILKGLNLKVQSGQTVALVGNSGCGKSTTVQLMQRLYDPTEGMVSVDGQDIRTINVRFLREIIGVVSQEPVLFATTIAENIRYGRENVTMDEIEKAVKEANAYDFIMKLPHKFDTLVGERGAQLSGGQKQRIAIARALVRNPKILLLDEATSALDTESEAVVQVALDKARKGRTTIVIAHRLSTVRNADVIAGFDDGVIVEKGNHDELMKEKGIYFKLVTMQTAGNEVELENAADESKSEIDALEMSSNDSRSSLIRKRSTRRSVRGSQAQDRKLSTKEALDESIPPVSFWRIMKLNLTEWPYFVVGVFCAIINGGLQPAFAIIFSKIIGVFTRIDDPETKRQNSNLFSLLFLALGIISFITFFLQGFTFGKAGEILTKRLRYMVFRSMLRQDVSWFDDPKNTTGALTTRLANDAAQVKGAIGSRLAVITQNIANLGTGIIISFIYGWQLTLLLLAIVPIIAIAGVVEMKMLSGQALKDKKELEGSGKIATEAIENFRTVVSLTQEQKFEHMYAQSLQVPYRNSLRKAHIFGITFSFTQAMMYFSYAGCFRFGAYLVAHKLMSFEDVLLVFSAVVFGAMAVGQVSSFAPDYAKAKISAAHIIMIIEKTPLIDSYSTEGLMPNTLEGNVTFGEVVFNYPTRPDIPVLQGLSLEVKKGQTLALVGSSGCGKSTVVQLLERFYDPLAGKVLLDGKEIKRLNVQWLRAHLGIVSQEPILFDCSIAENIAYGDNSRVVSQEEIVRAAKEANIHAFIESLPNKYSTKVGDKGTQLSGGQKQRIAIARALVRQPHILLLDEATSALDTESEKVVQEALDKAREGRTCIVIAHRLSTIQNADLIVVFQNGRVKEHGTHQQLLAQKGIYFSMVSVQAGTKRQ

| SMILES | Formation Rate (human hepatocytes; [7]) | Formation Rate (human hepatocytes; [8]) | Formation Rate [3, 9] | Formation Rate [3, 10] | Formation Rate [4, 11] | Formation Rate [4, 12] | Formation Rate [5, 13] | Formation Rate [5, 14] | Formation Rate [6, 15] | Formation Rate [6, 16] | also measured |
| --- | --- | --- | --- | --- | --- | --- | --- | --- | --- | --- | --- |
| C/C=C/C[C@@H](C)C(=O)[C@H]1C(=O)N[C@@H](C(C)C)C(=O)N(C)CC(=O)N(C)[C@@H](CC(C)C)C(=O)N[C@@H](C(C)C)C(=O)N(C)[C@@H](CC(C)C)C(=O)N[C@@H](C)C(=O)N[C@H](C)C(=O)N(C)[C@@H](CC(C)C)C(=O)N(C)[C@@H](CC(C)C)C(=O)N(C)[C@@H](C(C)C)C(=O)N1C [Valspodar, valspodar] |  |  |  |  |  |  |  |  |  |  | inhibition at 120 min, 1 µM (P-GP): 100% |
| S=P(N1CC1)(N1CC1)N1CC1 [Thio-TEPA] |  |  |  |  |  |  |  |  |  |  | activity at 20 min, 0.123 µM (CYP2B6 [1]; 0.123 μM): 97%; activity at 20 min, 0.37 µM (CYP2B6 [1]; 0.370 μM): 97.3%; activity at 20 min, 3.33 µM (CYP2B6 [1]; 3.33 μM): 69.7%; activity at 20 min, 10 µM (CYP2B6 [1]; 10.0 μM): 44.3%; activity at 20 min, 30 µM (CYP2B6 [1]; 30.0 μM): 25.6%; activity at 20 min, 0.37 µM (CYP2B6 [2]; pre-incubation 30 min +NADPH): 86.4%; activity at 20 min, 3.33 µM (CYP2B6 [2]; pre-incubation 30 min +NADPH): 37.6%; activity at 20 min, 10 µM (CYP2B6 [2]; pre-incubation 30 min +NADPH): 18%; activity at 20 min, 30 µM (CYP2B6 [2]; pre-incubation 30 min +NADPH): 11.7%; activity at 20 min, 0.37 µM (CYP2B6 [2]; pre-incubation 30 min −NADPH): 92.5%; activity at 20 min, 3.33 µM (CYP2B6 [2]; pre-incubation 30 min −NADPH): 78.5%; activity at 20 min, 10 µM (CYP2B6 [2]; pre-incubation 30 min −NADPH): 58.6%; activity at 20 min, 30 µM (CYP2B6 [2]; pre-incubation 30 min −NADPH): 41.4% |
| O=C(O)[C@H]1O[C@@H](Oc2ccc3ccc(=O)oc3c2)[C@H](O)[C@@H](O)[C@@H]1O [Compound 7-HC-G] | 316 pmol/min/10^6 cells | 316 pmol/min/10^6 cells | 253 pmol/min/10^6 cells | 253 pmol/min/10^6 cells | 234 pmol/min/10^6 cells | 234 pmol/min/10^6 cells | 301 pmol/min/10^6 cells | 301 pmol/min/10^6 cells | 279 pmol/min/10^6 cells | 279 pmol/min/10^6 cells |  |
| CC(=O)CC(c1ccccc1)c1c(O)c2ccccc2oc1=O (stereo not shown) [Warfarin, warfarin] |  |  |  |  |  |  |  |  |  |  | fraction unbound at 4 h, 10 μM (in vitro; Beagle, dog, % Bound Mean): 0.026; fraction unbound at 4 h, 10 μM (in vitro; Beagle, dog, % Bound R1-R3): 0.027; fraction unbound at 4 h, 10 μM (in vitro; CD-1, mouse, % Bound Mean): 0.217; fraction unbound at 4 h, 10 μM (in vitro; CD-1, mouse, % Bound R1-R3): 0.226; fraction unbound at 4 h, 10 μM (in vitro; monkey, % Bound Mean): 0.006; fraction unbound at 4 h, 10 μM (in vitro; monkey, % Bound R1-R3): 0.007 |
| O=c1ccc2ccc(OS(=O)(=O)[O-])cc2o1.[K+] [Compound 7-HC-S] | 7.74 pmol/min/10^6 cells | 7.74 pmol/min/10^6 cells | 34.0 pmol/min/10^6 cells | 34 pmol/min/10^6 cells | 6.36 pmol/min/10^6 cells | 6.36 pmol/min/10^6 cells | 24.5 pmol/min/10^6 cells | 24.5 pmol/min/10^6 cells | 13.3 pmol/min/10^6 cells | 13.3 pmol/min/10^6 cells |  |
